Experiments:
[1] = GSH Incubation Assay; type: in vitro ADME; settings: following incubations with glutathione
Procedure: GSH Incubation Assay: The test compound (10 μM in DMSO) was incubated with L-glutathione (50 mM, prepared in 100 mM postassium phosphate buffer) at 37° C. for 4 hours and then analyzed by HPLC-UV/MS/MS without work-up. Thermo Accela HPLC and Velos Pro Orbitrap Elite (S/N: SN05189B) operating in positive mode with a source voltage of 3.5 kV with data dependant processing. […] Product assignments were based on high resolution mass spectrometer fragmentation.

[2] = test system: sAPPβ in H4 human neuroglioma cells over-expressing the wild-type human APP695; experiment: sAPPβ Whole-Cell Assay (WCA); type: cell-based; settings: 18 h
Procedure: sAPPβ Whole-Cell Assay (WCA): sAPPβ, the primary cleavage product of BACE1, was determined in H4 human neuroglioma cells over-expressing the wild-type human APP695. […] The colorimetric reaction was read by an EnVision (PerkinElmer) plate-reader.

[3] = target: human BACE2 (Homo sapiens (Human), UniProt Q9Y5Z0); experiment: BACE2 binding assay (SPA), BACE2/BACE1 Binding Ratio; settings: ratio of IC50 from respective binding assays, pH 6.0
Chain of human BACE2 (Q9Y5Z0 63-518): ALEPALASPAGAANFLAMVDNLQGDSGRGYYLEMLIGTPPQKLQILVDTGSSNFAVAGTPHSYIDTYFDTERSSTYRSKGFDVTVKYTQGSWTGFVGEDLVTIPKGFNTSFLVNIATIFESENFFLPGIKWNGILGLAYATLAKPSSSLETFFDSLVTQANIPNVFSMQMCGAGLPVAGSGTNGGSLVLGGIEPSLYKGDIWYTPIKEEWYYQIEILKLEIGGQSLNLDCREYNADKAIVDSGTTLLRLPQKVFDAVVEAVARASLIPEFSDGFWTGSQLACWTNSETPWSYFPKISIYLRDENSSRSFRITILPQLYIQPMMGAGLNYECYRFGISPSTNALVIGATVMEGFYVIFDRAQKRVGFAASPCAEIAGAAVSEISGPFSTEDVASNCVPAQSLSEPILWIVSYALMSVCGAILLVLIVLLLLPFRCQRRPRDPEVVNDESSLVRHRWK
Procedure: BACE2/BACE1 Binding Ratio: The BACE1 and BACE2 binding assays measured beta-site amyloid precursor protein-cleaving enzyme (BACE) binding as a decrease in the counts of radioligand bound in a scintillation proximity assay (SPA). […] Full length human BACE1 or BACE2 over-expressed in HEK cells was prepared by Pfizer scientists. Frozen stock cell paste was reacted in 50 mM sodium acetate buffer (pH=6.0) containing 3H-(4aR,6R,8aS)-8a-(2,4-difluorophenyl)-6-(1-methyl-1H-pyrazol-4-yl)-4,4a,5,6,8,8a-hexahydropyrano[3,4-d][1,3]thiazin-2-amine ligand, SPA bead and 60 μM to 600 pM of test compound in an assay volume of 27 uL. The compound plate also contained positive (BACE inhibitor) and negative (DMSO) control wells. The binding was carried out at room temperature for 30 minutes and then the plates were read on a TriLux Microbeta reader to determine the number of counts bound.

## C[C@H]1C[C@H]2CSC(N)=N[C@@]2(c2nc(NC(=O)c3ccc(OC(F)F)cn3)cs2)CO1 [Example 1, N-{2-[(4aR,6S,8aR)-2-amino-6-methyl-4,4a,5,6-tetrahydropyrano[3,4-d][1,3]thiazin-8a(8H)-yl]-1,3-thiazol-4-yl}-5-(difluoromethoxy)pyridine-2-carboxamide]
[1]
  formation of GSH adducts: not detected

## NC1=N[C@@]2(c3cc(NC(=O)c4ccc(OC(F)F)cn4)ccc3F)CO[C@@H](C(F)(F)F)C[C@H]2CS1 [Comparator 6]
[2]
  IC50: < 1 nM
[3]
  BACE2/BACE1 Binding Ratio: 1.0

## C[C@H]1C[C@H]2CSC(N)=N[C@@]2(c2nc(NC(=O)c3ccc(Cl)cn3)cs2)CO1 [Example 7, N-{2-[(4aR,6S,8aR)-2-amino-6-methyl-4,4a,5,6-tetrahydropyrano[3,4-d][1,3]thiazin-8a(8H)-yl]-1,3-thiazol-4-yl}-5-chloropyridine-2-carboxamide]
[1]
  formation of GSH adducts: not detected

## C[C@H]1C[C@H]2CSC(N)=N[C@@]2(c2nc(NC(=O)c3cnc(OC(F)F)cn3)cs2)CO1 [Example 2, N-{2-[(4aR,6S,8aR)-2-amino-6-methyl-4,4a,5,6-tetrahydropyrano[3,4-d][1,3]thiazin-8a(8H)-yl]-1,3-thiazol-4-yl}-5-(difluoromethoxy)pyrazine-2-carboxamide]
[1]
  formation of GSH adducts: not detected

## C[C@H]1C[C@H]2CSC(N)=N[C@@]2(c2cc(NC(=O)c3ccc(Cl)cn3)ccc2F)CO1 [Comparator 7]
[2]
  IC50: < 1 nM
[3]
  BACE2/BACE1 Binding Ratio: 1.0

## Cc1cc(OC(F)F)cnc1C(=O)Nc1csc([C@]23CO[C@@H](C)C[C@H]2CSC(N)=N3)n1 [Example 45, N-{2-[(4aR,6S,8aR)-2-amino-6-methyl-4,4a,5,6-tetrahydropyrano[3,4-d][1,3]thiazin-8a(8H)-yl]-1,3-thiazol-4-yl}-5-(difluoromethoxy)-3-methylpyridine-2-carboxamide]
[1]
  formation of GSH adducts: not detected

From patent US9744173B2, “2-amino 6-methyl-4,4a,5,6-tetrahydropyrano[3,4-d][1,3]thiazin-8a(8H)-yl-1,3-thiazol-4-yl amides” (Pfizer Inc., priority 2014, dated 2017)
